Consider six molecules from paper PMC11504387, “Synthesis and Biological Activity Assessment of 2-Styrylbenzothiazoles as Potential Multifunctional Therapeutic Agents” (Antioxidants, 2024).

In general, IC50 refers to the concentration that gives 50% inhibition. The low end stands for higher potency, the high end for lower potency. The melting point is the temperature of the solid-liquid transition.

Structures are written as SMILES.

One data set can be described thus: ORAC assay. Format: biochemical. Particulars: Trolox equivalents; mean ± SD. The procedure:
The ORAC assay was performed based on the previously modified Hong procedure. The sodium salt of fluorescein (85 nM) was used as a target for free radical attack with 2,2′-azobis(2-amidinopropane) dichloride (AAPH) as a peroxyl radical generator in the final assay mixture (total volume of 0.2 mL). The test involves a calibration curve of Trolox (standard control) with different concentrations (40 to 240 μM). The compounds tested were first dissolved in DMSO:MeOH and then diluted in phosphate buffer solution pH 7.4. Fluorescence measurements were performed at 37 °C and recorded at 5-min intervals up to 30 min after the addition of AAPH. ORAC values were calculated as the difference in areas under the fluorescein quenching curves between the blank and the sample and were expressed as µmol Trolox equivalents (TE) per gram of dried sample.

Data set [1] deals with T1, 5-LO in A23187-stimulated human PMNL (Homo sapiens, UniProt P09917).
T1 construct: Freshly isolated PMNL (1 × 10^6 cells/mL) in PBS buffer pH 7.4; endogenous in cells; host or cells: primary human PMNL (neutrophils) isolated from blood
T1 sequence (P09917 1-674): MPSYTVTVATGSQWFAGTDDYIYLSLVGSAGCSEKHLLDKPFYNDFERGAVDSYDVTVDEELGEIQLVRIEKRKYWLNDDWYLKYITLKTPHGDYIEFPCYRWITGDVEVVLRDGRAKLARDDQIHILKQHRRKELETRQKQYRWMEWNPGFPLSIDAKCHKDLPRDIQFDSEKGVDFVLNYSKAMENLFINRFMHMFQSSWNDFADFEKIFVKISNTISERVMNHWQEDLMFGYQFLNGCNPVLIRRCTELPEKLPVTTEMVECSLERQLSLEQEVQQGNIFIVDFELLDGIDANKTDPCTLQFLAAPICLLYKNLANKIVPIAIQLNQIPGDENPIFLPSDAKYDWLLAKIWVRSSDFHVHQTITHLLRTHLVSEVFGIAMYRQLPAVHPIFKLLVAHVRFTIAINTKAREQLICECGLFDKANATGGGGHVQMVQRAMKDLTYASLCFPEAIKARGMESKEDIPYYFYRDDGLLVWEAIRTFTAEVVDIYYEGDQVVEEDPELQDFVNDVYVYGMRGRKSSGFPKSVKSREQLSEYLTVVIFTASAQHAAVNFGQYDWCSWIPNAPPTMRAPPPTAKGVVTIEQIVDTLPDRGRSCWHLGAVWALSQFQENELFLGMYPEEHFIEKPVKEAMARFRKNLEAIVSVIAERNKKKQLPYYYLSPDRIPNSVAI
Description: 5-Lipoxygenase inhibition in a cell-based assay (PMNL). The settings on record: for remaining activity at 10 µM: PMNL, % relative to vehicle (DMSO), read-out: 5-LO Residual Activity (PMNL, 10 µM); for IC50: activated PMNL. The procedure:
Following blood density centrifugation and cell population separation, PMNL was recovered from the pellet after hypotonic lysis of erythrocytes. Freshly isolated PMNL (1 × 10^6 cells/mL) in PBS buffer pH 7.4 with glucose (1 mg/mL) and CaCl2 (1 mM) was pre-incubated with the test compounds for 10 min at 37 °C. Then, 5-lipoxygenase (5-LO) product formation was started by addition of 2.5 μM Ca^2+-ionophore A23187 plus 20 μM arachidonic acid. The reaction was stopped after 10 min at 37 °C with 1 mL of ice-cold methanol containing 200 ng PGB1 as internal standard. Major 5-LO products (LTB4, trans-LTB4, epi-trans-LTB4, and 5-HETE) were extracted by SPE using Sep-Pak C18 35 cc Vac Cartridges (Waters, Milford, MA, USA) and analysed by UPLC-MS/MS as described by Pein et al..

For a further data set, the system named is primary human monocytes. Kind of data set: Lipid mediator (LM) formation in primary human monocytes. The settings on record: 10 µM; A23187 2.5 µM, 30 min. The class given is cell-based. The text has this: Monocytes and polymorphonuclear leukocytes (PMNL) were freshly isolated from human blood. Human blood and leukocyte concentrates were provided by the Institute for Transfusion Medicine of the University Hospital Jena (Thuringia, Germany). The protocols for experiments with human blood and blood cells were approved by the ethical commission of the Friedrich Schiller University of Jena. Following blood density centrifugation and separation of cell populations, peripheral blood mononuclear cells (PBMC) were left to adhere for 1 h to cell culture flasks (monocyte-enriched PBMC). Non-adherent cells were washed off from the adherent monocytes, before pre-incubating monocytes (5 × 10^6 cells/mL) with the test compounds for 10 min at 37 °C. LM formation was elicited with A23187 (2.5 µM) and CaCl2 (1 mM) over 30 min. The reaction was stopped with 1 mL of ice-cold methanol containing 10 µL of deuterium-labelled internal LM standards (200 nM d8-5S-HETE, d4-LTB4, d5-LXA4, d5-RvD2, d4-PGE2 and 10 µM d8-AA). LMs were extracted using Sep-Pak C18 35 cc Vac Cartridges (Waters, Milford, MA, USA) and analysed by UPLC-MS/MS as described by Pein et al..
The ability to modulate LM formation was screened in primary human monocytes expressing the enzymes required for PGE2, LTB4, and 12-HETE production (Figure 2A). Cells were pre-treated with the test compounds BZTst1–6 (10 µM) or the reference COX inhibitor diclofenac (1 µM) for 10 min prior to stimulation with the calcium ionophore A23187 (2.5 µM) for 30 min.

Take `COc1ccc(/C=C/c2nc3ccccc3s2)cc1O` [BZTst5, (E)-5-(2-(benzo[d]thiazol-2-yl)vinyl)-2-methoxyphenol]: the ORAC entry in “ORAC assay” is “<LOQ ^b”. Also, in data set [1], the remaining activity at 10 µM came out at 74 ± 25.8%.
Turning to `C(=C\c1nc2ccccc2s1)/c1ccccc1` [BZTst1, (E)-2-styrylbenzo[d]thiazole], the ORAC result in “ORAC assay” is reported as “<LOQ ^b”. Also, in the data set with primary human monocytes, the 12-HETE formation result is reported as “weak but significant inhibition”. In addition, in data set [1], the remaining activity at 10 µM came to 48.7 ± 10.2%.
With `Oc1ccc(/C=C/c2nc3ccccc3s2)cc1` [BZTst2, (E)-4-(2-(benzo[d]thiazol-2-yl)vinyl)phenol], in the data set “ORAC assay”, the ORAC is recorded as 11,614.64 ± 1184.06 µmolTE/g. Further, in data set [1], the remaining activity at 10 µM worked out at 22.9 ± 14.6% and 2900 nM corresponded to half-maximal inhibition (IC50).
For `COc1cc(/C=C/c2nc3ccccc3s2)ccc1O` [BZTst6, (E)-4-(2-(benzo[d]thiazol-2-yl)vinyl)-2-methoxyphenol] the same measures were 19,027.54 ± 46.67 µmolTE/g, 7.11 ± 4.9% and 950 nM.
For `Oc1ccc(/C=C/c2nc3ccccc3s2)cc1O` [BZTst4, (E)-4-(2-(benzo[d]thiazol-2-yl)vinyl)benzene-1,2-diol], in the data set “ORAC assay”, the ORAC result is recorded as “<LOQ ^b”. In addition, the 12-HETE formation entry in the data set with primary human monocytes was “highly significant inhibition”. Further, in data set [1], the remaining activity at 10 µM stood at 0.79 ± 0.49% and 700 nM corresponded to half-maximal inhibition (IC50).
Molecule `COc1ccc(/C=C/c2nc3ccccc3s2)cc1` [BZTst3, (E)-2-(4-methoxystyryl)benzo[d]thiazole] had a melting point of 144 to 148 °C. Besides, the ORAC in the data set “ORAC assay” was 1077.84 ± 98.52 µmolTE/g. Besides, the remaining activity at 10 µM in data set [1] is 75.3 ± 19.7%.
